Assay results published in patent US20050143927A1, “Method for estimating or predicting the anti-tumor activity of a compound and for estimating or predicting the tumor growth in mammals” (Pharmacia Italia S.p.A., priority 2002, published 2005).

Columns and labels:
[1] = three-compartment PK model; known average value; cited from earlier work
[2] = test system: H207 (ovarian human carcinoma); experiment: Tumor growth model for treated subjects, H207 inoculated subcutaneously in athymic nude mice (Experiment-C); assay type: in vivo; details: average growth curve
Procedure: The cell line H207 (ovarian human carcinoma) was inoculated subcutaneously on the back of 70 female athymic nude mice, initially weighing 17.0-25.0 g. […] Cage G2: 7 mice, treated with 3 iv-bolus of Drug-C, repeated every 7 days (therapeutic regimen q7d×3), at a dosing of 0.39 mg/kg. • III. Cage G3: 7 mice, treated with iv-bolus of Drug-C at the therapeutic regimen q7d×3, at a dosing of 0.52 mg/kg. • IV. […] Cage G6: 7 mice, treated with iv-bolus of Drug-C at the therapeutic regimen q4d×3, at a dosing of 0.39 mg/kg. • VII. Cage G8: 7 mice, treated with iv-bolus of Drug-C at the therapeutic regimen q4d×3, at a dosing of 0.52 mg/kg. • VIII. Cage G9: 7 mice, treated with 10 iv-bolus of Drug-C, subdivided in 2 cycles of treatment of 5 daily iv-bolus followed by 2 days of rest (therapeutic regimen qd×5×2 wks), at the dosing of 0.117 mg/kg each. • IX. Cage G10: 7 mice treated at the same treatment and therapeutic regimen of G4, but with the drug coming from a different batch of production.
In this case, despite the silent interval finished in correspondence of the tenth day (where the first measurement of the tumor mass was carried out), the chemotherapeutic treatment started in correspondence of the eleventh day.
The dimensions of the tumor can be taken applying different types of measurements broadly classifiable as measurements of linear dimensions, of volume (or mass) and cell number. For tumors that maintain more or less a spherical morphology, as in the case of solid tumors, the measurement of the three principal diameters results the most adequate, as well as the most practiced solution. Nevertheless, in the case of subcutaneous tumors, the tumor can be considered of spherical shape only during the initial phase of growth; in the following phases, the dimension perpendicular to the skin is generally much smaller than the percutaneous dimensions, conferring to the mass a plaque-like shape or an hemi-ellipsoidal shape. In the experiments taken into consideration, only the dimensions of the two percutaneous diameters were directly measured with vernier calipers. The third dimension was not directly measured, because of the limited accessibility (which would have required a greater invasiveness), in the assumption that two measures were anyhow sufficient to guarantee a good approximation of the tumor mass (K. Rygaard and M. Spang-Thomsen, “Quantitation and Gompertzian analysis of tumor growth”. Breast Cancer Research and Treatment, 46: 303-312,1997).
The volume of a tumor can be indirectly calculated by applying the following empirical formula: [formula] where DMIN and DMAX denote, respectively, the smallest and the largest percutaneous diameter. Such empirical formula hypothesizes that the neoplasia has an ellipsoidal shape (D. A. Cameron, W. M. Gregory, A. Bowman, E. D. C. Anderson, P. Levack, P. Forouhi and R. F. C. Leonard, “Identification of long-term survivors in primary breast cancer by dynamic modeling of tumour response”. British Journal of Cancer, 83(1): 98-103, 2000, Hammond, L. A.; Hilsenbeck, S. G.; Eckhardt, S. G.; Marty, J; Mangold, G.; MacDonald, G. R.; Rowinsky, E. K.; Von Hoff, D. D; Weitman S. Enhanced antitumour activity of 6-hydroxymethylacylfulvene in combination with topotecan or paclitaxel in the MV522 lung carcinoma xenograft model. European Journal of Cancer 2000, 36, 2430-2436) obtained by the rotation of a hemi-ellipsoid (with DMIN and DMAX as axes of the percutaneous plane) around its largest axe. Assuming δ as a constant density equal to δ=10^−3g/mm^3, the empirical expression for the mass of the neoplasia results to be: [formula] The Measurement Error Model

[3] = test system: H207 (ovarian human carcinoma); experiment: as above; assay type: in vivo; details: average growth curve; remark: listed apart in the source
[4] = cage G2, 0.39 mg/kg iv-bolus q7dx3
[5] = cage G3, 0.52 mg/kg iv-bolus q7dx3
[6] = cage G4, 0.78 mg/kg iv-bolus q7dx3
[7] = cage G5, 0.26 mg/kg iv-bolus q4dx3
[8] = cage G6, 0.39 mg/kg iv-bolus q4dx3
[9] = cage G7, 0.52 mg/kg iv-bolus q4dx3
[10] = cage G8, 0.117 mg/kg iv-bolus qdx5x2wks
[11] = cage G9, 0.156 mg/kg iv-bolus qdx5x2wks
[12] = cage G10, 0.78 mg/kg iv-bolus q7dx3, drug from a different batch

SMILES: C=C(Br)C(=O)Nc1cc(C(=O)Nc2cc(C(=O)Nc3cc(C(=O)Nc4cc(C(=O)NCCNC(=N)N)n(C)c4)n(C)c3)n(C)c2)n(C)c1 [Drug-C, brostallicin]
- K10 [1]: 134.7 day⁻¹
- K12 [1]: 42.33 day⁻¹
- K13 [1]: 13.28 day⁻¹
- K21 [1]: 48.7 day⁻¹
- K31 [1]: 5.898 day⁻¹
- Vd [1]: 0.1811 L/kg
- K1 (index of the tumor cells death rate) [2, 4]: 0.289 day⁻¹
- K2 (index of the potency of the compound) [2, 4]: 0.1731 mL/g/day
- λ0 (production rate of tumor cells, exponential phase) [2, 4]: 0.2886
- λ1 (tumor cells mass produced in the time unit, linear phase) [2, 4]: 0.5183
- K1 (index of the tumor cells death rate) [2, 5]: 0.2574 day⁻¹
- K2 (index of the potency of the compound) [2, 5]: 0.1519 mL/g/day
- λ0 (production rate of tumor cells, exponential phase) [2, 5]: 0.2757
- λ1 (tumor cells mass produced in the time unit, linear phase) [2, 5]: 0.6241
- K1 (index of the tumor cells death rate) [2, 6]: 0.2558 day⁻¹
- K2 (index of the potency of the compound) [2, 6]: 0.1085 mL/g/day
- λ0 (production rate of tumor cells, exponential phase) [2, 6]: 0.2297
- λ1 (tumor cells mass produced in the time unit, linear phase) [2, 6]: 0.3193
- K1 (index of the tumor cells death rate) [2, 7]: 0.2979 day⁻¹
- K2 (index of the potency of the compound) [2, 7]: 0.2044 mL/g/day
- λ0 (production rate of tumor cells, exponential phase) [2, 7]: 0.2728
- λ1 (tumor cells mass produced in the time unit, linear phase) [2, 7]: 0.602
- K1 (index of the tumor cells death rate) [2, 8]: 0.3486 day⁻¹
- K2 (index of the potency of the compound) [2, 8]: 0.1698 mL/g/day
- λ0 (production rate of tumor cells, exponential phase) [2, 8]: 0.2554
- λ1 (tumor cells mass produced in the time unit, linear phase) [2, 8]: 0.2736
- K1 (index of the tumor cells death rate) [2, 9]: 0.2488 day⁻¹
- K2 (index of the potency of the compound) [2, 9]: 0.12 mL/g/day
- λ0 (production rate of tumor cells, exponential phase) [2, 9]: 0.1966
- λ1 (tumor cells mass produced in the time unit, linear phase) [2, 9]: 0.279
- K1 (index of the tumor cells death rate) [2, 10]: 0.3766 day⁻¹
- K2 (index of the potency of the compound) [2, 11]: 0.2829 mL/g/day
- λ0 (production rate of tumor cells, exponential phase) [2, 11]: 0.2942
- λ1 (tumor cells mass produced in the time unit, linear phase) [2, 11]: 0.1931
- K1 (index of the tumor cells death rate) [2, 12]: 0.3789 day⁻¹
- K2 (index of the potency of the compound) [2, 12]: 0.1558 mL/g/day
- λ0 (production rate of tumor cells, exponential phase) [2, 12]: 0.2969
- λ1 (tumor cells mass produced in the time unit, linear phase) [2, 12]: 0.2177
- K2 (index of the potency of the compound) [3, 10]: 0.2081 mL/g/day
- λ0 (production rate of tumor cells, exponential phase) [3, 10]: 0.2611
- λ1 (tumor cells mass produced in the time unit, linear phase) [3, 10]: 0.581
- K1 (index of the tumor cells death rate) [3, 11]: 0.4152 day⁻¹
